From patent publication US10703757B2, “Compounds and methods for CDK8 modulation and indications therefor” (Plexxikon Inc., priority 2016, dated 2020)

Experiments:
[1] = tested on: CDK8 (phosphorylation of STAT1 at serine 727 in A549 cells); experiment: Cell based Phospho-STAT1 assay (IFNγ-stimulated A549 cells, AlphaLISA); settings: Homo sapiens, A549, A549 cells, phospho-STAT1 after IFNγ stimulation
Method in brief: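 A549 cells given serial compound dilutions for 1 h at 37 °C, then stimulated with IFNγ at 10 ng/mL final for 30 min. Lysate STAT1 Ser727 phosphorylation measured by AlphaLISA; % inhibition vs stimulated/unstimulated DMSO controls, IC50 by nonlinear regression.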

[2] = tested on: CDK8 (TCF/LEF luciferase reporter in HCT116 cells); experiment: Cell based TCF/LEF reporter assay (HCT116+TCF/LEF luciferase); settings: Homo sapiens, HCT-116, 24 h
Method in brief: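 Luciferase readout was corrected for viability (CellTiter-Fluor) and scaled between DMSO high and 10 uM CCT251545 low controls, giving IC50 by nonlinear regression. Compounds, serially diluted, were incubated 24 h at 37 °C on HCT116 clones stably expressing a TCF/LEF-driven luciferase reporter.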

| Compound | IC50 [1] [nM] | IC50 [2] [nM] |
| --- | --- | --- |
| Cc1ccc2cc(-c3cnn4ccnc(C#CC(C)(C)C(N)=O)c34)ccc2n1 [Compound P-0118, 2,2-dimethyl-4-(3-(2-methylquinolin-6-yl)pyrazolo[1,5-a]pyrazin-4-yl)but-3-ynamide] | 0.1 to 100 | 0.1 to 100 |
| O=C(C1CCC(c2cccn3ncc(-c4ccc(-c5cnn(C(F)F)c5)cc4)c23)CC1)N1CCC1 (centres unmarked) [Compound P-0315, azetidin-1-yl(4-(3-(4-(1-(difluoromethyl)-1H-pyrazol-4-yl)phenyl)pyrazolo[1,5-a]pyridin-4-yl)cyclohexyl)methanone] | 100 to 1000 | 100 to 1000 |
| FC(F)n1cc(-c2ccc(-c3cnc4cccc(OC5COC5)n34)cc2)cn1 [Compound P-0284, 3-(4-(1-(difluoromethyl)-1H-pyrazol-4-yl)phenyl)-5-(oxetan-3-yloxy)imidazo[1,2-a]pyridine] | 1000 to 10000 | 1000 to 10000 |
| N#CC1CCC(c2cccn3ncc(-c4ccc(OCCCN5CCCCC5)cc4)c23)CC1 (centres unmarked) [Compound P-0142, 4-(3-(4-(3-(piperidin-1-yl)propoxy)phenyl)pyrazolo[1,5-a]pyridin-4-yl)cyclohexane-1-carbonitrile] | 0.1 to 100 | 0.1 to 100 |
| N#CC1(c2ccccc2)CCN(c2cccc3ncc(-c4ccc(-c5cnn(C(F)F)c5)cc4)n23)CC1 [Compound P-0322, 1-(3-(4-(1-(difluoromethyl)-1H-pyrazol-4-yl)phenyl)imidazo[1,2-a]pyridin-5-yl)-4-phenylpiperidine-4-carbonitrile] | 100 to 1000 | 100 to 1000 |
| N#CC1CC=C(c2cccn3ncc(-c4ccc(OCCN5CCCCC5)cc4)c23)CC1 (centres unmarked) [Compound P-0181, 4-(3-(4-(2-(piperidin-1-yl)ethoxy)phenyl)pyrazolo[1,5-a]pyridin-4-yl)cyclohex-3-ene-1-carbonitrile] | 0.1 to 100 | 0.1 to 100 |
| N#CC1CCN(c2c(-c3ccc(OCCOC4CCOCC4)cc3)cnc3[nH]ccc23)CC1 [Compound P-0171] | 0.1 to 100 | 0.1 to 100 |
| N#CC1CC=C(c2nccn3ncc(-c4ccc5[nH]ncc5c4)c23)CC1 (centres unmarked) [Compound P-0070, 4-(3-(1H-indazol-5-yl)pyrazolo[1,5-a]pyrazin-4-yl)cyclohex-3-ene-1-carbonitrile] | 0.1 to 100 | 0.1 to 100 |
| CC(=O)C1CCN(c2cccc3ncc(C#Cc4cnn(C)c4)n23)CC1 [Compound P-0240, 1-(1-(3-((1-methyl-1H-pyrazol-4-yl)ethynyl)imidazo[1,2-a]pyridin-5-yl)piperidin-4-yl)ethan-1-one] | 1000 to 10000 | 1000 to 10000 |
| Cc1ccc2cc(-c3cnn4cccc(C5CCC(C#N)CC5)c34)ccc2n1 (centres unmarked) [Compound P-0194, 4-(3-(2-methylquinolin-6-yl)pyrazolo[1,5-a]pyridin-4-yl)cyclohexane-1-carbonitrile] | 0.1 to 100 | 0.1 to 100 |
| CC(C)(O)Cn1cc(-c2ccc(-c3cnn4ccnc(C#CC(C)(C)C(N)=O)c34)cc2)cn1 [Compound P-0110, 4-(3-(4-(1-(2-hydroxy-2-methylpropyl)-1H-pyrazol-4-yl)phenyl)pyrazolo[1,5-a]pyrazin-4-yl)-2,2-dimethylbut-3-ynamide] | 0.1 to 100 | 0.1 to 100 |
| CNC(=O)c1ccc2cc(-c3cnn4cccc(C5=CCC(C#N)CC5)c34)ccc2c1 (centres unmarked) [Compound P-0330, 6-(4-(4-cyanocyclohex-1-en-1-yl)pyrazolo[1,5-a]pyridin-3-yl)-N-methyl-2-naphthamide] | 0.1 to 100 | 0.1 to 100 |
| N#CC1CCN(c2c(-c3ccc(OCCCN4CCOCC4)cc3)cnc3[nH]ccc23)CC1 [Compound P-0327, 1-(5-(4-(3-morpholinopropoxy)phenyl)-1H-pyrrolo[2,3-b]pyridin-4-yl)piperidine-4-carbonitrile] | 0.1 to 100 | 0.1 to 100 |
| CC(C)(C#Cc1cccn2ncc(-c3ccc(-c4cnn(CCN5CCCC5)c4)cc3)c12)C(N)=O [Compound P-0465, 2,2-dimethyl-4-(3-(4-(1-(2-(pyrrolidin-1-yl)ethyl)-1H-pyrazol-4-yl)phenyl)pyrazolo[1,5-a]pyridin-4-yl)but-3-ynamide] | 0.1 to 100 | 0.1 to 100 |
| N#CC1CC=C(c2nccn3ncc(-c4ccc(Cl)c(F)c4)c23)CC1 (centres unmarked) [Compound P-0083, 4-(3-(4-chloro-3-fluorophenyl)pyrazolo[1,5-a]pyrazin-4-yl)cyclohex-3-ene-1-carbonitrile] | 100 to 1000 | 100 to 1000 |
| Cc1ncc(-c2cnn3ccnc(C4=CCC(C#N)CC4)c23)s1 (centres unmarked) [Compound P-0077, 4-(3-(2-methylthiazol-5-yl)pyrazolo[1,5-a]pyrazin-4-yl)cyclohex-3-ene-1-carbonitrile] | 100 to 1000 | 100 to 1000 |

| Compound | IC50 [1] [nM] | IC50 [2] [nM] |
| --- | --- | --- |
| N#CC1CC=C(c2nccn3ncc(-c4ccc(-c5cnn(CC(N)=O)c5)cc4)c23)CC1 (centres unmarked) [Compound P-0027, 2-(4-(4-(4-(4-cyanocyclohex-1-en-1-yl)pyrazolo[1,5-a]pyrazin-3-yl)phenyl)-1H-pyrazol-1-yl)acetamide] | 0.1 to 100 | 0.1 to 100 |
| COc1ncc(C#Cc2cnc3cccc(N4CCC(C#N)CC4)n23)cn1 [Compound P-0313, 1-(3-((2-methoxypyrimidin-5-yl)ethynyl)imidazo[1,2-a]pyridin-5-yl)piperidine-4-carbonitrile] | 100 to 1000 | 100 to 1000 |
| N#CC1CCC(c2nccn3ncc(-c4ccc(-c5cnn(CC6(C#N)CC6)c5)c(F)c4)c23)CC1 (centres unmarked) [Compound P-0018, (1s,4s)-4-(3-(4-(1-((1-cyanocyclopropyl)methyl)-1H-pyrazol-4-yl)-3-fluorophenyl)pyrazolo[1,5-a]pyrazin-4-yl)cyclohexane-1-carbonitrile] | 0.1 to 100 | 0.1 to 100 |
| N#CC1CC=C(c2nccn3ncc(-c4ccc(OCCCN5CCOCC5)cc4)c23)CC1 (centres unmarked) [Compound P-0130, 4-[3-[4-(3-morpholinopropoxy)phenyl]pyrazolo[1,5-a]pyrazin-4-yl]cyclohex-3-ene-1-carbonitrile] | 0.1 to 100 | 0.1 to 100 |
| CS(=O)(=O)Cn1cc(-c2ccc(-c3cnn4ccnc(C5CCC(C#N)CC5)c34)cc2)cn1 (centres unmarked) [Compound P-0023, (1s,4s)-4-(3-(4-(1-((methylsulfonyl)methyl)-1H-pyrazol-4-yl)phenyl)pyrazolo[1,5-a]pyrazin-4-yl)cyclohexane-1-carbonitrile] | 0.1 to 100 | 0.1 to 100 |
| CS(=O)(=O)CCn1cc(-c2ccc(-c3cnn4ccnc(C5CCC(C#N)CC5)c34)cc2)cn1 (centres unmarked) [Compound P-0015, (1s,4s)-(3-(4-(1-(2-(methylsulfonyl)ethyl)-1H-pyrazol-4-yl)phenyl)pyrazolo[1,5-a]pyrazin-4-yl)cyclohexane-1-carbonitrile] | 0.1 to 100 | 0.1 to 100 |
| CC1(COc2ccc(-c3cnn4ccnc(C5=CCC(C#N)CC5)c34)cc2)COC1 (centres unmarked) [Compound P-0055, 4-(3-(4-((3-methyloxetan-3-yl)methoxy)phenyl)pyrazolo[1,5-a]pyrazin-4-yl)cyclohex-3-ene-1-carbonitrile] | 0.1 to 100 | 0.1 to 100 |
| COc1ccc2cc(-c3cnc4[nH]ccc4c3N3CCC(C#N)CC3)ccc2n1 [Compound P-0221, 1-(5-(2-methoxyquinolin-6-yl)-1H-pyrrolo[2,3-b]pyridin-4-yl)piperidine-4-carbonitrile] | 0.1 to 100 | 0.1 to 100 |
| CC(C)(O)C#Cc1cccn2ncc(-c3cnn(-c4cncc(C5CC5)c4)c3)c12 [Compound P-0289, 4-(3-(1-(5-cyclopropylpyridin-3-yl)-1H-pyrazol-4-yl)pyrazolo[1,5-a]pyridin-4-yl)-2-methylbut-3-yn-2-ol] | 1000 to 10000 | 1000 to 10000 |
| N#CC1CC=C(c2cccn3ncc(-c4ccc5cncnc5c4)c23)CC1 (centres unmarked) [Compound P-0119, 4-(3-(quinazolin-7-yl)pyrazolo[1,5-a]pyridin-4-yl)cyclohex-3-ene-1-carbonitrile] | 0.1 to 100 | 100 to 1000 |
| N#CC1CCC(c2nccn3ncc(-c4ccc(-c5cnn(CC6CCC6)c5)cc4)c23)CC1 (centres unmarked) [Compound P-0022, (1s,4s)-4-(3-(4-(1-(cyclobutylmethyl)-1H-pyrazol-4-yl)phenyl)pyrazolo[1,5-a]pyrazin-4-yl)cyclohexane-1-carbonitrile] | 0.1 to 100 | 0.1 to 100 |
| CC(C)(O)C#Cc1cccn2ncc(-c3ccc4cc(NS(C)(=O)=O)ccc4c3)c12 [Compound P-0216, N-(6-(4-(3-hydroxy-3-methylbut-1-yn-1-yl)pyrazolo[1,5-a]pyridin-3-yl)naphthalen-2-yl)methanesulfonamide] | 0.1 to 100 | 100 to 1000 |
| CCCS(=O)(=O)Nc1ccc2cc(-c3cnn4ccnc(C5CCC(C#N)CC5)c34)ccc2c1 (centres unmarked) [Compound P-0061, N-(6-(4-((1s,4s)-4-cyanocyclohexyl)pyrazolo[1,5-a]pyrazin-3-yl)naphthalen-2-yl)propane-1-sulfonamide] | 0.1 to 100 | 0.1 to 100 |
| N#CC1CC=C(c2nccn3ncc(-c4ccc(-c5cnn(CC(F)F)c5)cc4)c23)CC1 (centres unmarked) [Compound P-0029, 4-(3-(4-(1-(2,2-difluoroethyl)-1H-pyrazol-4-yl)phenyl)pyrazolo[1,5-a]pyrazin-4-yl)cyclohex-3-ene-1-carbonitrile] | 0.1 to 100 | 0.1 to 100 |
| N#CC1CCN(c2cccn3ncc(-c4cccc(OCc5ccccc5)c4)c23)CC1 [Compound P-0252, 1-(3-(3-(benzyloxy)phenyl)pyrazolo[1,5-a]pyridin-4-yl)piperidine-4-carbonitrile] | 1000 to 10000 | 1000 to 10000 |
